According to PubChem BioAssay (NCI):
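Dose response: 5 concentrations. Exposure: 48 h. Format: 96-well plates. Endpoint: linear interpolation; highest concentration if not reached. At the GI50, growth is halved. TGI: concentration producing complete growth inhibition.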

Tests used:
Experiment in all cases: growth of human tumour cells (NCI), 48 h
[1] = system: 786-0 renal
[2] = system: A549 NSCLC
[3] = system: ACHN renal
[4] = system: BT-549 breast
[5] = system: CAKI-1 renal
[6] = system: CCRF-CEM leukemia
[7] = system: COLO 205 colon
[8] = system: DU-145 prostate
[9] = system: EKVX NSCLC
[10] = system: HCC-2998 colon
[11] = system: HCT-116 colon
[12] = system: HCT-15 colon
[13] = system: HL-60(TB) leukemia
[14] = system: HOP-62 NSCLC
[15] = system: HOP-92 NSCLC
[16] = system: HS 578T breast
[17] = system: HT29 colon
[18] = system: IGROV1 ovarian
[19] = system: K-562 leukemia
[20] = system: KM12 colon
[21] = system: LOX IMVI melanoma
[22] = system: M14 melanoma
[23] = system: MALME-3M melanoma
[24] = system: MCF7 breast
[25] = system: MDA-MB-231 breast
[26] = system: MDA-MB-435
[27] = system: MDA-N
[28] = system: MOLT-4 leukemia
[29] = system: NCI-H226 lung
[30] = system: NCI-H23 lung
[31] = system: NCI-H460 lung
[32] = system: NCI/ADR-RES ovarian
[33] = system: OVCAR-3 ovarian
[34] = system: OVCAR-4 ovarian
[35] = system: OVCAR-5 ovarian
[36] = system: OVCAR-8 ovarian
[37] = system: PC-3 prostate
[38] = system: RPMI-8226 leukemia
[39] = system: RXF 393 renal
[40] = system: SF-268 CNS
[41] = system: SF-295 CNS
[42] = system: SF-539 CNS
[43] = system: SK-MEL-2 melanoma
[44] = system: SK-MEL-28 melanoma
[45] = system: SK-MEL-5 melanoma
[46] = system: SK-OV-3 ovarian
[47] = system: SN12C renal
[48] = system: SNB-19 CNS
[49] = system: SNB-75 CNS
[50] = system: SR leukemia
[51] = system: T-47D breast
[52] = system: TK-10 renal
[53] = system: U251 CNS
[54] = system: UACC-257 melanoma
[55] = system: UACC-62 melanoma
[56] = system: UO-31 renal
[57] = system: NCI-H522 lung
[58] = system: SW-620 colon

## COc1cccc(/C=C/c2ccc(S(N)(=O)=O)cc2)c1
[1]
  TGI: 98.2 µM
[2]
  GI50: 11 µM
  TGI: > 100 µM
[3]
  GI50: 7.12 µM
  TGI: > 100 µM
[4]
  GI50: 6.38 µM
  TGI: > 100 µM
[5]
  GI50: 14.7 µM
  TGI: > 100 µM
[6]
  GI50: 13.6 µM
  TGI: > 100 µM
[7]
  TGI: 42.8 µM
[8]
  TGI: > 100 µM
[9]
  TGI: > 100 µM
[10]
  TGI: 87.2 µM
[11]
  TGI: 21.7 µM
[12]
  GI50: 3.6 µM
  TGI: 65.4 µM
[13]
  GI50: 10.4 µM
  TGI: 77.7 µM
[14]
  TGI: > 100 µM
[15]
  GI50: 3.29 µM
  TGI: 35.8 µM
[16]
  GI50: 25.5 µM
  TGI: 80.1 µM
[17]
  GI50: 0.554 µM
  TGI: > 100 µM
[18]
  GI50: 2.5 µM
  TGI: 28.9 µM
[19]
  GI50: 20.6 µM
  TGI: > 100 µM
[20]
  GI50: 12.2 µM
  TGI: > 100 µM
[21]
  GI50: 30.7 µM
  TGI: > 100 µM
[22]
  TGI: > 100 µM
[23]
  TGI: > 100 µM
[24]
  TGI: > 100 µM
[25]
  TGI: 79.6 µM
[26]
  GI50: 17.4 µM
  TGI: > 100 µM
[27]
  TGI: > 100 µM
[28]
  GI50: 26.8 µM
  TGI: > 100 µM
[29]
  GI50: 2.91 µM
  TGI: 17.5 µM
[30]
  GI50: 21 µM
  TGI: 57.5 µM
[31]
  TGI: > 100 µM
[32]
  TGI: > 100 µM
[33]
  TGI: 27.5 µM
[34]
  GI50: 25 µM
  TGI: > 100 µM
[35]
  TGI: > 100 µM
[36]
  GI50: 31.6 µM
  TGI: > 100 µM
[37]
  TGI: > 100 µM
[38]
  GI50: 3.81 µM
  TGI: 19.8 µM
[39]
  TGI: > 100 µM
[40]
  GI50: 17.1 µM
  TGI: > 100 µM
[41]
  TGI: > 100 µM
[42]
  GI50: 16.8 µM
  TGI: 77.6 µM
[43]
  TGI: 36.8 µM
[44]
  TGI: > 100 µM
[45]
  TGI: 66.8 µM
[46]
  TGI: > 100 µM
[47]
  TGI: 89.6 µM
[48]
  TGI: > 100 µM
[49]
  TGI: 91.2 µM
[50]
  GI50: 5.21 µM
  TGI: 40.8 µM
[51]
  TGI: > 100 µM
[52]
  TGI: 90 µM
[53]
  GI50: 5.54 µM
  TGI: > 100 µM
[54]
  TGI: 60.9 µM
[55]
  GI50: 14 µM
  TGI: 58.9 µM
[56]
  TGI: > 100 µM

## CCOC(=O)c1nc2cc(C(F)(F)F)ccc2nc1Oc1ccc(OC)cc1
[1]
  TGI: > 100 µM
[2]
  TGI: > 100 µM
[3]
  TGI: > 100 µM
[4]
  TGI: > 100 µM
[5]
  TGI: > 100 µM
[6]
  TGI: > 100 µM
[7]
  TGI: > 100 µM
[8]
  TGI: > 100 µM
[9]
  TGI: > 100 µM
[10]
  TGI: > 100 µM
[11]
  TGI: > 100 µM
[12]
  TGI: > 100 µM
[13]
  TGI: > 100 µM
[15]
  TGI: > 100 µM
[16]
  TGI: > 100 µM
[18]
  TGI: > 100 µM
[19]
  TGI: > 100 µM
[20]
  TGI: > 100 µM
[21]
  TGI: > 100 µM
[22]
  TGI: > 100 µM
[23]
  TGI: > 100 µM
[24]
  TGI: > 100 µM
[25]
  TGI: > 100 µM
[26]
  TGI: > 100 µM
[27]
  TGI: > 100 µM
[28]
  TGI: > 100 µM
[29]
  TGI: > 100 µM
[31]
  TGI: > 100 µM
[57]
  TGI: > 100 µM
[32]
  TGI: > 100 µM
[33]
  TGI: > 100 µM
[34]
  TGI: > 100 µM
[35]
  TGI: > 100 µM
[36]
  TGI: > 100 µM
[37]
  TGI: > 100 µM
[38]
  TGI: > 100 µM
[39]
  TGI: > 100 µM
[40]
  TGI: > 100 µM
[41]
  TGI: > 100 µM
[42]
  TGI: > 100 µM
[43]
  TGI: > 100 µM
[44]
  TGI: > 100 µM
[45]
  TGI: > 100 µM
[47]
  TGI: > 100 µM
[48]
  TGI: > 100 µM
[49]
  TGI: > 100 µM
[50]
  TGI: > 100 µM
[58]
  TGI: > 100 µM
[51]
  TGI: > 100 µM
[52]
  TGI: > 100 µM
[53]
  TGI: > 100 µM
[54]
  TGI: > 100 µM
[55]
  TGI: > 100 µM
[56]
  TGI: > 100 µM
